Data taken from patent US20240218022A1, “ANTI-VISTA MACROCYCLIC PEPTIDES AND COMPOSITIONS” (BRISTOL-MYERS SQUIBB COMPANY, priority 2022, published 2024).
Read-outs that look alike come from different tables or passages of the source. Starred links: 1 amine or outer side, 2 acyl side, 3 side chain; linkers in the order of their positions; H or OH if unused. Positions of bridges follow the written chain, without caps; N, C: chain ends. Non-standard residues stand in square brackets, D forms with d. Residues, ends and D or L forms follow the SMILES beside them. γGlu = O=C(O)[C@H](CCC(=O)[*:2])N[*:1]; βAsp = O=C(O)[C@H](CC(=O)[*:2])N[*:1]; NMeY = CN[C@@H](Cc1ccc(O)cc1)C(=O)O; Cit = NC(=O)NCCC[C@H](N)C(=O)O; Ahp(2) = CCCCC[C@H](N)C(=O)O; NMeNle = CCCC[C@H](NC)C(=O)O; Tle = CC(C)(C)[C@H](N)C(=O)O; NHexGly = CCCCCCNCC(=O)O; Nle = CCCC[C@H](N)C(=O)O; Orn = NCCC[C@H](N)C(=O)O; Aun = NCCCCCCCCCCC(=O)O; AEEA = NCCOCCOCC(=O)O

Target: T1, mouse VISTA (mVISTA) (Mus musculus, UniProt Q9D659)
T1 construct: expressed in transfected cells; host or cells: Human embryonic kidney 293T cells
T1 sequence (Q9D659 33-308): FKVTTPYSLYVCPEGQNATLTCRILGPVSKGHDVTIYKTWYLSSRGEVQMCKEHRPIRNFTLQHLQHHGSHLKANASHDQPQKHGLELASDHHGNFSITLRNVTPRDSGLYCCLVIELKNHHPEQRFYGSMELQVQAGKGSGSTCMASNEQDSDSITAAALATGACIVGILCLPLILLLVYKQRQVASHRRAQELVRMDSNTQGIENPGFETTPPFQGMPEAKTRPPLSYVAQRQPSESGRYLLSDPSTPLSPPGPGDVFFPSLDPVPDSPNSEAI
Assay: Cell-Based Binding High-Content Assay For mVISTA (HC CBA mVISTA)
In short: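 mVISTA-293T, 4,000 cells/well; cpd ± washout step; biotin-peptide 2 nM final, 30 min RT; SA-Alexa 647 30 min; formaldehyde/Hoechst fix; HCS imaging; 4PL IC50.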

[1] = 293T cells expressing mouse VISTA, competition with biotinylated peptide (2 nM), read-out: HC CBA mVISTA IC50

Row | SMILES | IC50 [1] [µM] | IC50 (read-out: HC CBA mVISTA IC50) [µM] | also measured
1 | CCCCCCN1CC(=O)N[C@@H](Cc2ccc(O)cc2)C(=O)N[C@@H](CCCC)C(=O)N[C@@H](CC(N)=O)C(=O)N[C@@H](CCCNC(N)=O)C(=O)N[C@@H](CC(C)C)C(=O)N[C@@H](CCCCC)C(=O)N2CCC[C@H]2C(=O)N[C@@H](C(C)C)C(=O)N[C@@H](CC(=O)O)C(=O)N[C@H](C(=O)NCC(=O)O)CSCC(=O)N[C@@H](Cc2ccccc2)C(=O)N[C@@H](Cc2ccc(O)cc2)C(=O)N[C@@H](CC(=O)O)C1=O [Example 1019] ({CH2CO}-FYD[NHexGly]Y[Nle]N[Cit]L[Ahp(2)]PVDCG-OH; thioether N-14) | 0.0079 |  | 
2 | CCCCCCN1CC(=O)N[C@@H](Cc2ccc(O)cc2)C(=O)N[C@@H](CCCC)C(=O)N[C@@H](CC(N)=O)C(=O)N[C@@H](CCCNC(=N)N)C(=O)N(C)[C@@H](Cc2ccc(O)cc2)C(=O)N[C@@H](CCCCC)C(=O)N2CCC[C@H]2C(=O)N[C@@H](C(C)C)C(=O)N[C@@H](CC(=O)O)C(=O)N[C@H](C(=O)NCC(=O)O)CSCC(=O)N[C@@H](Cc2ccccc2)C(=O)N[C@@H](Cc2c[nH]c3ccccc23)C(=O)N[C@@H](CC(=O)O)C1=O [Example 1411] ({CH2CO}-FWD[NHexGly]Y[Nle]NR[NMeY][Ahp(2)]PVDCG-OH; thioether N-14) |  | 0.0186 | 
3 | CCCCCCN1CC(=O)N[C@@H](Cc2ccc(O)cc2)C(=O)N[C@@H](CC(C)C)C(=O)N[C@@H](CC(N)=O)C(=O)N[C@@H](CCCNC(=N)N)C(=O)N(C)[C@@H](CCCC)C(=O)N[C@@H](CCCCC)C(=O)N2CCC[C@H]2C(=O)N[C@@H](C(C)(C)C)C(=O)N[C@@H](CC(=O)O)C(=O)N[C@H](C(=O)NCCOCCOCC(=O)N[C@@H](CCC(=O)NCCOCCOCC(=O)NCCCCCCCCCCC(=O)O)C(=O)O)CSCC(=O)N[C@@H](Cc2ccccc2)C(=O)N[C@@H](Cc2c[nH]c3ccccc23)C(=O)N[C@@H](CC(=O)O)C1=O [compound 2265] ({CH2CO}-FWD[NHexGly]YLNR[NMeNle][Ahp(2)]P[Tle]DC[AEEA][γGlu][AEEA][Aun]-OH; thioether N-14) |  | 0.0178 | 
4 | CCCCCCN1CC(=O)N[C@@H](Cc2ccc(O)cc2)C(=O)N[C@@H](CCCCC)C(=O)NCC(=O)N[C@@H](CCCNC(=N)N)C(=O)N[C@@H](Cc2ccc(O)cc2)C(=O)N[C@@H](CCCCC)C(=O)N2CCC[C@H]2C(=O)N[C@@H](C(C)C)C(=O)N[C@@H](CO)C(=O)N[C@H](C(=O)NCC(N)=O)CSCC(=O)N[C@@H](Cc2ccccc2)C(=O)N[C@@H](Cc2ccc(O)cc2)C(=O)N[C@@H](CC(=O)O)C1=O [Example 1093] ({CH2CO}-FYD[NHexGly]Y[Ahp(2)]GRY[Ahp(2)]PVSCG-NH2; thioether N-14) | 0.0404 |  | 
5 | CCCCCCN1CC(=O)N[C@@H](Cc2ccc(O)cc2)C(=O)N[C@@H](CCCC)C(=O)N[C@@H](CC(N)=O)C(=O)N[C@@H](CCCNC(N)=O)C(=O)N(C)[C@@H](CCCC)C(=O)N[C@@H](CCCCC)C(=O)N2CCC[C@H]2C(=O)N[C@@H](C(C)(C)C)C(=O)N[C@@H](CO)C(=O)N[C@H](C(=O)NCC(N)=O)CSCC(=O)N[C@@H](Cc2ccccc2)C(=O)N[C@@H](Cc2c[nH]c3ccccc23)C(=O)N[C@@H](CC(=O)O)C1=O [Example 1390] ({CH2CO}-FWD[NHexGly]Y[Nle]N[Cit][NMeNle][Ahp(2)]P[Tle]SCG-NH2; thioether N-14) |  | 0.0252 | 
6 | CCCCCCN1CC(=O)N[C@@H](Cc2ccc(O)cc2)C(=O)N[C@@H](C)C(=O)N[C@@H](CC(N)=O)C(=O)N[C@@H](CCCN)C(=O)N(C)[C@@H](CCCC)C(=O)N[C@@H](CCCCC)C(=O)N2CCC[C@H]2C(=O)N[C@@H](C(C)(C)C)C(=O)N[C@@H](CC(=O)O)C(=O)N[C@H](C(=O)N[C@@H](CC(=O)NCCOCCOCC(=O)N[C@@H](CC(=O)O)C(=O)NCCOCCOCC(=O)NCCCCCCCCCCC(=O)O)C(=O)O)CSCC(=O)N[C@@H](Cc2ccccc2)C(=O)N[C@@H](Cc2ccc(O)cc2)C(=O)N[C@@H](CC(=O)O)C1=O [compound 2095] ({CH2CO}-FYD[NHexGly]YAN[Orn][NMeNle][Ahp(2)]P[Tle]DC[βAsp][AEEA]D[AEEA][Aun]-OH; thioether N-14) |  |  | IC50 (cell-based binding high-content assay, mVISTA, read-out: HC CBA miPrISTA IC50): 0.0501 µM
